In patent publication US20240208965A1, “HETEROARYL ALKYLENE SUBSTITUTED 2-OXOQUINAZOLINE DERIVATIVES AS METHIONINE ADENOSYLTRANSFERASE 2A INHIBITORS” (IDEAYA BIOSCIENCES, INC., priority 2020, published 2024):

These compounds were tested against T1, Human MAT2A (Homo sapiens, UniProt P31153) (assay: Phosphate Sensor Fluorescence Assay (Biologic Example A)). Details: MAT2A inhibition, Biological Example A procedure (Compounds 1.001-1.028); 500 uM L-methionine, 500 uM ATP.
T1 construct: Human MAT2A: Cepter, amino acids 1-395 Clone ID 334, lot 00023-148; purchased Cepter clone ID 334, lot 00023-148
T1 sequence (P31153 whole entry, the tested form may be a part): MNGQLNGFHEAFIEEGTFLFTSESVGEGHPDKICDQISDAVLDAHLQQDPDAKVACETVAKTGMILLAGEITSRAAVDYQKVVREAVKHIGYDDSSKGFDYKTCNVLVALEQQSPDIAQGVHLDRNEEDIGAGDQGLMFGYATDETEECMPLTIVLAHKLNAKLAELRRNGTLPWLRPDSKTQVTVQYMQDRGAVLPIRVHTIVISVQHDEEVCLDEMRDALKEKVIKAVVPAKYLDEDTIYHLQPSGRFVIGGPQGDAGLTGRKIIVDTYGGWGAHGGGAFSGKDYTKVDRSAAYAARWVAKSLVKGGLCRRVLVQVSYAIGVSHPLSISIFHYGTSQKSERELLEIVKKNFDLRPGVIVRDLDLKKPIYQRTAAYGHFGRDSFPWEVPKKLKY
Format: biochemical
Description: The ability of the compound of present disclosure to inhibit MAT2A enzyme was determined using a Phosphate Sensor Fluorescence Assay described below.
Biologic Example A. Phosphate Sensor Fluorescence Assay
MAT2A enzyme is incubated with a test compound in DMSO or DMSO and its substrates (L-methionine and ATP) in a microtiter plate. The enzymatic reaction is stopped by the addition of Working Phosphate Sensor Mixture. The plate is analyzed for fluorescence at 450 nm. The high control (DMSO with enzyme and its substrates) gives high fluorescence which represents no inhibition of enzymatic activity while the low control (DMSO with MAT2A substrates and no enzyme) gives low fluorescence which represents full inhibition of enzymatic activity.
• Human MAT2A: Cepter, amino acids 1-395 • Tris, pH 7.5: Invitrogen cat #15567-027 • KCl: Ambion cat #AM9640G • MgCl2: Ambion cat #AM9530G • Brij-35: Sigma cat B4184-10ML • DTT: Goldbio cat #DTT100 • BGG: Sigma cat #G5009-25G • PNP: Novus Biologicals cat #NBP1-50872 • 7-MEG: Cayman Chemical cat #15988 • L-Methionine: Alfa Aesar cat #J61904 • ATP: Alfa Aesar cat #J60336 • Phosphate Sensor: Thermo Fisher cat #PV4407 • EDTA: Life Tech cat #15575-038 • Assay plate: 384-well black polypropylene plate: Thomas Scientific cat #1149Q35
• Assay Buffer: 50 mM Tris, pH 7.5/50 mM KCl/10 mM MgCl2/0.01% Brij-35/1 mM DTT/0.1% BGG/40 nM PNP/6 uM 7-MEG • MAT2A: 10 nM for Cepter clone ID 329, lot 00023-123 before the addition of Working Phosphate Sensor Mixture • 5 nM for Cepter clone ID 334, lot 00023-148 before the addition of Working Phosphate Sensor Mixture • L-methionine: 500 uM before the addition of Working Phosphate Sensor Mixture • ATP: 500 uM before the addition of Working Phosphate Sensor Mixture
For the assay, a mixture of 1 mM L-methionine/1 mM ATP (2× final pre-stopped concentration) in assay buffer; MAT2A (2× final pre-stopped concentration) in Assay Buffer and Working Phosphate Sensor Mixture (1.5 uM Phosphate Sensor/30 mM EDTA in Assay Buffer, which is 3× final concentrations) were prepared. Test compounds or DMSO were added to the appropriate well suing D300e digital dispenser. 5 μl/well of Assay Buffer was added to the wells corresponding to the negative control and 5 μl/well of MAT2A was added to all the wells except for those corresponding to the negative control. After incubating the plate at room temperature for 15 minutes, 5 μl/well of the 1 mM L-methionine/1 mM ATP mixture was added to all wells. The plate was centrifuged at 1000 rpm for 1 minute and then incubated at room temperature for 1 hour. 5 μl of the Working Phosphate Sensor Mixture was added to all wells and the plate was centrifuged at 1000 rpm for 1 minute. The plate was read for fluorescence at 450 nm after exciting at 430 nm.
Percent inhibition was calculated in Chemical and Biological Information System (CBIS), (ChemInnovation Software Inc.). Curves were fitted by CBIS as % inhibition vs. log [compound concentration] using a 4-parameter inhibition model.
Fit=(A+((B−A)/(1+((C/x)^D))))
Compounds 1.001-1.028 were tested using the procedure described in Bioogical Example A, described above. Compounds 1.029-1.070 were tested using the procedure described in Biological Example B, described above.
Work on `C[C@@H](c1c[nH]cn1)n1c(=O)nc(N2CCCC2)c2ccc(C(F)(F)F)cc21` (single isomer, unassigned) [1.024] yielded an IC50 of 10 to 200 nM. Compound `CNc1nc(=O)n([C@H](C)c2c[nH]cn2)c2cc(C(F)(F)F)ccc12` (single isomer, unassigned) [1.008] has an IC50 of 10 to 200 nM. In the case of `CC(c1c[nH]cn1)n1c(=O)nc(N2CC[C@H](O)C2)c2ccc(C(F)(F)F)cc21` (mixture of isomers) [1.019, 1-(1-(1H-imidazol-4-yl)ethyl)-4-((S)-3-hydroxypyrrolidin-1-yl)-7-(trifluoromethyl)quinazolin-2(1H)-one], the IC50 is reported as 200 to 500 nM. `CC(c1c[nH]cn1)n1c(=O)nc(N)c2ccc(C(F)(F)F)cc21` (stereo not drawn) [1.018, 1-(1-(1H-imidazol-4-yl)ethyl)-4-amino-7-(trifluoromethyl)quinazolin-2(1H)-one] gave an IC50 of 10 to 200 nM. For `C[C@H](c1c[nH]cn1)n1c(=O)nc(N2CCCC2)c2ccc(C(F)(F)F)cc21` (single isomer, unassigned) [1.023], the IC50 was 10 to 200 nM. With `CNc1nc(=O)n(Cc2c[nH]cn2)c2cc(C3CC3)ccc12` [1.004, 1-((1H-Imidazol-4-yl)methyl)-7-cyclopropyl-4-(methylamino)quinazolin-2(1H)-one] the IC50 was 10 to 200 nM. With `CNc1nc(=O)n(Cc2c[nH]nn2)c2cc(C3CC3)ccc12` [1.006, 1-((1H-1,2,3-triazol-4-yl)methyl)-7-cyclopropyl-4-(methylamino)quinazolin-2(1H)-one] the IC50 was 1000 to 10000 nM. `C[C@H](c1c[nH]cn1)n1c(=O)nc(N2CCC2)c2ccc(C(F)(F)F)cc21` (single isomer, unassigned) [1.027] was tested, and the IC50 was 200 to 500 nM. `CC(c1c[nH]cn1)n1c(=O)nc(N2CC[C@@H](CO)C2)c2ccc(C(F)(F)F)cc21` (mixture of isomers) [1.020, 1-(1-(1H-imidazol-4-yl)ethyl)-4-((R)-3-(hydroxymethyl)pyrrolidin-1-yl)-7-(trifluoromethyl)quinazolin-2(1H)-one] was tested, and the IC50 was 200 to 500 nM. `CNc1nc(=O)n(C(C)c2c[nH]cn2)c2cc(C(F)(F)F)ccc12` (racemic) [1.007, 1-(1-(1H-imidazol-4-yl)ethyl)-4-(methylamino)-7-(trifluoromethyl)quinazolin-2(1H)-one] was tested, and the IC50 was 10 to 200 nM. Compound `CNc1nc(=O)n(Cc2c[nH]cn2)c2cc(Cl)ccc12` [1.001, 1-((1H-imidazol-4-yl)methyl)-7-chloro-4-(methylamino)quinazolin-2(1H)-one] has an IC50 of 10 to 200 nM. For `CNc1nc(=O)n(Cc2c[nH]cn2)c2cc(C(F)(F)F)ccc12` [1.003, 1-((1H-imidazol-4-yl)methyl)-4-(methylamino)-7-(trifluoromethyl)quinazolin-2(1H)-one], the IC50 was 10 to 200 nM.
